Results published in patent US20050032822A1, “Dithiocarbamate derivatives and their use as antibacterial agents” (priority 2001, published 2005).
Values after ≈ are worked out from the molar mass of the structure shown.

Test system: M. tuberculosis H37Rv and two drug-resistant clinical isolates
Test: MIC and MBC against M. tuberculosis in liquid Shkolnikova medium / Lowenstein-Jensen medium
Assay type: cell-based, Mycobacterium tuberculosis
Conditions: mean values of the three strains (H37Rv and two drug-resistant clinical isolates); 14 days at 37° C.

First: CNc1ncnc(SC(=S)N2CCCC2)c1[N+](=O)[O-] [Subst. Nr. 12, 4-methylamino-6-tetramethylenedithiocarbamoyl-5-nitropyrimidine]
Second: 4-isopropylamino-6-diethyldithiocarbamoyl-5-nitropyrimidine [Subst. Nr. 1]
The “MIC (minimal inhibitory concentration) against Mycobacterium tuberculosis” value (“MIC (minimal inhibitory concentration)” below) of the first is 8.6-fold lower: 3.64 µg/mL (≈ 12.2 µM) for the first, 31.3 µg/mL for the second.

Compared with `CN(C)C(=S)Sc1ncnc(N(C)C)c1[N+](=O)[O-]` [Subst. Nr. 8, 4-dimethylamino-6-dimethyldithiocarbamoyl-5-nitropyrimidine], `CN(C)c1ncnc(SC(=S)N2CCCC2)c1[N+](=O)[O-]` [Subst. Nr. 13, 4-dimethylamino-6-tetramethylenedithiocarbamoyl-5-nitropyrimidine] is 2.5-fold lower in “MIC (minimal inhibitory concentration)” value: 7.81 µg/mL (≈ 27.2 µM) for the first, 3.12 µg/mL (≈ 9.96 µM) for the second.

`CCN(CC)C(=S)Sc1ncnc(NC)c1[N+](=O)[O-]` [Subst. Nr. 4, 4-methylamino-6-diethyldithiocarbamoyl-5-nitropyrimidine] and `CCN(CC)C(=S)Sc1c(C#N)cc([N+](=O)[O-])cc1[N+](=O)[O-]` [Subst. Nr. 3, 3,5-dinitro-2-diethyldithiocarbamoylbenzonitril] are within 1.5-fold of each other in “MIC (minimal inhibitory concentration)” value: 6.25 µg/mL (≈ 20.7 µM) for the first, 5.37 µg/mL (≈ 15.8 µM) for the second.

Compared with `CN(C)C(=S)Sc1c(C#N)cc([N+](=O)[O-])cc1[N+](=O)[O-]` [Subst. Nr. 9, 3,5-dinitro-2-dimethyldithiocarbamoylbenzonitrile], `CCN(CC)C(=S)Sc1ncnc(N(C)O)c1[N+](=O)[O-]` [Subst. Nr. 5, 4-methylhydroxyamino-6-diethyldithiocarbamoyl-5-nitropyrimidine] is 2-fold higher in “MIC (minimal inhibitory concentration)” value: 4.78 µg/mL (≈ 15.3 µM) for the first, 9.38 µg/mL (≈ 29.6 µM) for the second.

Going from `CCCOc1ncnc(SC(=S)N(C)C)c1[N+](=O)[O-]` [Subst. Nr. 11, 4-propoxy-6-dimethyldithiocarbamoyl-5-nitropyrimidine] to `CCN(CC)C(=S)Sc1ncnc(NC2CC2)c1[N+](=O)[O-]` [Subst. Nr. 2, 4-cyclopropylamino-6-diethyldithiocarbamoyl-5-nitropyrimidine], the “MIC (minimal inhibitory concentration)” value rises from 9.37 µg/mL (≈ 31 µM) to 20.8 µg/mL (≈ 63.5 µM) (2.2-fold).

`CNc1ncnc(SC(=S)N(C)C)c1[N+](=O)[O-]` [Subst. Nr. 7, 4-methylamino-6-dimethyldithiocarbamoyl-5-nitropyrimidine] and `CCOc1nc(C)nc(SC(=S)N2CCCC2)c1[N+](=O)[O-]` [Subst. Nr. 10, 4-ethoxy-2-methyl-6-tetramethylenedithiocarbamoyl-5-nitropyrimidine] are within 1.5-fold of each other in “MIC (minimal inhibitory concentration)” value: 7.78 µg/mL (≈ 28.5 µM) for the first, 5.21 µg/mL (≈ 15.9 µM) for the second.

`CCOc1nc(C)nc(SC(=S)N(CC)CC)c1[N+](=O)[O-]` [Subst. Nr. 6, 4-ethoxy-2-methyl-6-diethyldithiocarbamoyl-5-nitropyrimidine] was tested, and the “MIC (minimal inhibitory concentration)” value was 20.8 µg/mL (≈ 62.9 µM).

Same assay, conditions: mean values of the three strains; read after 21-28 days on solid drug free Lowenstein-Jensen medium

Going from `CNc1ncnc(SC(=S)N2CCCC2)c1[N+](=O)[O-]` [Subst. Nr. 12, 4-methylamino-6-tetramethylenedithiocarbamoyl-5-nitropyrimidine] to “4-isopropylamino-6-diethyldithiocarbamoyl-5-nitropyrimidine [Subst. Nr. 1]”, the “MBC (minimal bactericidal concentration) against Mycobacterium tuberculosis” value (“MBC (minimal bactericidal concentration)” below) rises from 8.33 µg/mL (≈ 27.8 µM) to 100.0 µg/mL (12-fold).

First: CN(C)C(=S)Sc1ncnc(N(C)C)c1[N+](=O)[O-] [Subst. Nr. 8, 4-dimethylamino-6-dimethyldithiocarbamoyl-5-nitropyrimidine]
Second: CN(C)c1ncnc(SC(=S)N2CCCC2)c1[N+](=O)[O-] [Subst. Nr. 13, 4-dimethylamino-6-tetramethylenedithiocarbamoyl-5-nitropyrimidine]
The “MBC (minimal bactericidal concentration)” value of the first is 2-fold higher: 12.5 µg/mL (≈ 43.5 µM) for the first, 6.25 µg/mL (≈ 19.9 µM) for the second.

First: CCN(CC)C(=S)Sc1ncnc(NC)c1[N+](=O)[O-] [Subst. Nr. 4, 4-methylamino-6-diethyldithiocarbamoyl-5-nitropyrimidine]
Second: CCN(CC)C(=S)Sc1c(C#N)cc([N+](=O)[O-])cc1[N+](=O)[O-] [Subst. Nr. 3, 3,5-dinitro-2-diethyldithiocarbamoylbenzonitril]
The “MBC (minimal bactericidal concentration)” value of the first is 1.7-fold higher: 12.5 µg/mL (≈ 41.5 µM) for the first, 7.29 µg/mL (≈ 21.4 µM) for the second.

Compared with `CN(C)C(=S)Sc1c(C#N)cc([N+](=O)[O-])cc1[N+](=O)[O-]` [Subst. Nr. 9, 3,5-dinitro-2-dimethyldithiocarbamoylbenzonitrile], `CCN(CC)C(=S)Sc1ncnc(N(C)O)c1[N+](=O)[O-]` [Subst. Nr. 5, 4-methylhydroxyamino-6-diethyldithiocarbamoyl-5-nitropyrimidine] is 2-fold higher in “MBC (minimal bactericidal concentration)” value: 6.25 µg/mL (≈ 20 µM) for the first, 12.5 µg/mL (≈ 39.4 µM) for the second.

Going from `CCCOc1ncnc(SC(=S)N(C)C)c1[N+](=O)[O-]` [Subst. Nr. 11, 4-propoxy-6-dimethyldithiocarbamoyl-5-nitropyrimidine] to `CCN(CC)C(=S)Sc1ncnc(NC2CC2)c1[N+](=O)[O-]` [Subst. Nr. 2, 4-cyclopropylamino-6-diethyldithiocarbamoyl-5-nitropyrimidine], the “MBC (minimal bactericidal concentration)” value rises from 12.5 µg/mL (≈ 41.3 µM) to 29.1 µg/mL (≈ 88.9 µM) (2.3-fold).

`CNc1ncnc(SC(=S)N(C)C)c1[N+](=O)[O-]` [Subst. Nr. 7, 4-methylamino-6-dimethyldithiocarbamoyl-5-nitropyrimidine] and `CCOc1nc(C)nc(SC(=S)N2CCCC2)c1[N+](=O)[O-]` [Subst. Nr. 10, 4-ethoxy-2-methyl-6-tetramethylenedithiocarbamoyl-5-nitropyrimidine] are within 1.5-fold of each other in “MBC (minimal bactericidal concentration)” value: 10.42 µg/mL (≈ 38.1 µM) for the first, 8.33 µg/mL (≈ 25.4 µM) for the second.

In the case of `CCOc1nc(C)nc(SC(=S)N(CC)CC)c1[N+](=O)[O-]` [Subst. Nr. 6, 4-ethoxy-2-methyl-6-diethyldithiocarbamoyl-5-nitropyrimidine], the “MBC (minimal bactericidal concentration)” value was 41.7 µg/mL (≈ 126 µM).
